# In patent US10087178B2, “Substituted spiropyrido[1,2-a]pyrazine derivative and medicinal use thereof as HIV integrase inhibitor” (priority 2012, dated 2018):
# Structures can show the parent of a compound that is named as a salt. Where two headings read alike, the source gives them in different places.
# Test system: HIV-1 NL4-3 strain
# Experiment: Evaluation of antiviral activity: acute infection system of MT-4 cell with HIV-1 NL4-3 strain
# Type: cell-based
# [1] = Human immunodeficiency virus 1, NL43, MT4, 120 h, MT-4 cells infected with HIV-1 NL4-3 strain (MOI 0.05), cultured 5 days, Cell Titer-Glo, read-out: antiviral activity (EC50)
# [2] = MT-4 cells infected with HIV-1 NL4-3 strain (MOI 0.05), cultured 5 days, Cell Titer-Glo, read-out: antiviral activity (EC50)
# [3] = Human immunodeficiency virus 1, NL43, MT4, 120 h, read-out: antiviral activity (EC50)
# [4] = Human immunodeficiency virus 1, NL43, MT4, 120 h, antiviral activity, MT-4 cells infected with HIV-1 NL4-3 (MOI 0.05), 5 days culture, Cell Titer-Glo luminescence, read-out: EC50
SMILES,EC50 [4],also measured
"COC[C@H]1C[C@@]2(CN(C)C(=O)c3c(O)c(=O)c(C(=O)NCc4cccc(Cl)c4F)cn32)C1 [Example 27, N-(3-chloro-2-fluorobenzyl)-9′-hydroxy-trans-3-(methoxymethyl)-2′-methyl-1′,8′-dioxo-1′,2′,3′,8′-tetrahydrospiro[cyclobutane-1,4′-pyrido[1,2-a]pyrazine]-7′-carboxamide]",–,EC50 [1]: 1.5 nM
"COC[C@H]1C[C@]2(CN(C)C(=O)c3c(O)c(=O)c(C(=O)NCc4cccc(Cl)c4F)cn32)C1 [Example 28, Monosodium 7′-(3-chloro-2-fluorobenzylcarbamoyl)-cis-3-(methoxymethyl)-2′-methyl-1′,8′-dioxo-1′,2′,3′,8′-tetrahydrospiro[cyclobutane-1,4′-pyrido[1,2-a]pyrazin]-9′-olate]",–,EC50 [2]: 2.2 nM
"COC[C@H]1C[C@]2(CN(C)C(=O)c3c(O)c(=O)c(C(=O)NCc4cccc(Cl)c4F)cn32)C1 [Example 29, Monopotassium 7′-(3-chloro-2-fluorobenzylcarbamoyl)-cis-3-(methoxymethyl)-2′-methyl-1′,8′-dioxo-1′,2′,3′,8′-tetrahydrospiro[cyclobutane-1,4′-pyrido[1,2-a]pyrazin]-9′-olate]",–,EC50 [3]: 2.5 nM
"COC[C@H]1C[C@]2(CN(C)C(=O)c3c([O][Ca][O]c4c5n(cc(C(=O)NCc6cccc(Cl)c6F)c4=O)[C@]4(CN(C)C5=O)C[C@H](COC)C4)c(=O)c(C(=O)NCc4cccc(Cl)c4F)cn32)C1 [Example 30, Monocalcium bis[7′-(3-chloro-2-fluorobenzylcarbamoyl)-cis-3-(methoxymethyl)-2′-methyl-1′,8′-dioxo-1′,2′,3′,8′-tetrahydrospiro[cyclobutane-1,4′-pyrido[1,2-a]pyrazin]-9′-olate]]",–,EC50 [1]: 1.1 nM
"COC[C@H]1C[C@]2(CN(C)C(=O)c3c(O)c(=O)c(C(=O)NCc4cccc(Cl)c4F)cn32)C1 [Example 31, N-(3-chloro-2-fluorobenzyl)-9′-hydroxy-cis-3-(methoxymethyl)-2′-methyl-1′,8′-dioxo-1′,2′,3′,8′-tetrahydrospiro[cyclobutane-1,4′-pyrido[1,2-a]pyrazine]-7′-carboxamide hydrobromide]",–,"EC50 (MT-4 cells infected with HIV-1 NL4-3 strain (MOI 0.05), cultured 5 days, Cell Titer-Glo, hydrobromide, read-out: antiviral activity (EC50)): 1.9 nM"
"COC[C@H]1C[C@]2(CN(C)C(=O)c3c(O)c(=O)c(C(=O)NCc4cccc(Cl)c4F)cn32)C1 [Example 32, N-(3-chloro-2-fluorobenzyl)-9′-hydroxy-cis-3-(methoxymethyl)-2′-methyl-1′,8′-dioxo-1′,2′,3′,8′-tetrahydrospiro[cyclobutane-1,4′-pyrido[1,2-a]pyrazine]-7′-carboxamide monosulfate]",–,EC50 [2]: 0.9 nM
"COC[C@H]1C[C@]2(CN(C)C(=O)c3c(O)c(=O)c(C(=O)NCc4cccc(Cl)c4F)cn32)C1 [Example 33, N-(3-chloro-2-fluorobenzyl)-9′-hydroxy-cis-3-(methoxymethyl)-2′-methyl-1′,8′-dioxo-1′,2′,3′,8′-tetrahydrospiro[cyclobutane-1,4′-pyrido[1,2-a]pyrazine]-7′-carboxamide 4-methylbenzenesulfonate]",–,EC50 [2]: 0.9 nM
"COC[C@H]1C[C@]2(CN(C)C(=O)c3c(OC(C)=O)c(=O)c(C(=O)NCc4cccc(Cl)c4F)cn32)C1 [Example 37, 7′-(3-chloro-2-fluorobenzylcarbamoyl)-cis-3-(methoxymethyl)-2′-methyl-1′,8′-dioxo-1′,2′,3′,8′-tetrahydrospiro[cyclobutane-1,4′-pyrido[1,2-a]pyrazin]-9′-yl acetate]",–,EC50 [1]: 0.7 nM
"COC[C@H]1C[C@]2(CN(C)C(=O)c3c(OC(=O)/C=C/C(=O)O)c(=O)c(C(=O)NCc4cccc(Cl)c4F)cn32)C1 [Example 39, (E)-4-[7′-(3-chloro-2-fluorobenzylcarbamoyl)-cis-3-(methoxymethyl)-2′-methyl-1′,8′-dioxo-1′,2′,3′,8′-tetrahydrospiro[cyclobutane-1,4′-pyrido[1,2-a]pyrazin]-9′-yloxy]-4-oxobut-2-enoic acid]",–,EC50 [3]: 1.4 nM
"COC[C@H]1C[C@]2(CN(C)C(=O)c3c(OC(=O)c4cccc(C(=O)O)c4)c(=O)c(C(=O)NCc4cccc(Cl)c4F)cn32)C1 [Example 40, Monosodium 3-{[7′-(3-chloro-2-fluorobenzylcarbamoyl)-cis-3-(methoxymethyl)-2‘-methyl-’,8′-dioxo-1′,2′,3′,8′-tetrahydrospiro[cyclobutane-1,4′-pyrido[1,2-a]pyrazin]-9′-yloxy]carbonyl}benzoate]",–,EC50 [1]: 1 nM
"CC(C)N1C[C@]2(C[C@@H](OCc3ccccc3)C2)n2cc(C(=O)NCc3ccc(F)cc3F)c(=O)c(O)c2C1=O [Example S1, trans-3-(benzyloxy)-N-(2,4-difluorobenzyl)-9′-hydroxy-2′-isopropyl-1′,8-dioxo-1′,2′,3′,8′-tetrahydrospiro[cyclobutane-1,4′-pyrido[1,2-a]pyrazine]-7′-carboxamide hydrochloride]",7.7 nM,–
"CC(C)N1C[C@]2(C[C@H](OCc3ccccc3)C2)n2cc(C(=O)NCc3ccc(F)cc3F)c(=O)c(O)c2C1=O [Example S2, cis-3-(benzyloxy)-N-(2,4-difluorobenzyl)-9′-hydroxy-2′-isopropyl-1′,8′-dioxo-1′,2′,3′,8′-tetrahydrospiro[cyclobutane-1,4′-pyrido[1,2-a]pyrazine]-7′-carboxamide hydrochloride]",10 nM,–
"CO[C@H]1C[C@@]2(CN(C(C)C)C(=O)c3c(O)c(=O)c(C(=O)NCc4ccc(F)cc4F)cn32)C1 [Example S5, N-(2,4-difluorobenzyl)-9′-hydroxy-2′-isopropyl-trans-3-methoxy-1′,8′-dioxo-1′,2′,3′,8′-tetrahydrospiro[cyclobutane-1,4′-pyrido[1,2-a]pyrazine]-7′-carboxamide hydrochloride]",4.4 nM,–
"CO[C@H]1C[C@]2(CN(C(C)C)C(=O)c3c(O)c(=O)c(C(=O)NCc4ccc(F)cc4F)cn32)C1 [Example S6, N-(2,4-difluorobenzyl)-9′-hydroxy-2′-isopropyl-cis-3-methoxy-1′,8′-dioxo-1′,2′,3′,8′-tetrahydrospiro[cyclobutane-1,4′-pyrido[1,2-a]pyrazine]-7′-carboxamide hydrochloride]",3.7 nM,–
"CCO[C@H]1C[C@@]2(CN(C(C)C)C(=O)c3c(O)c(=O)c(C(=O)NCc4ccc(F)cc4F)cn32)C1 [Example S7, N-(2,4-difluorobenzyl)- trans-3-ethoxy-9′-hydroxy-2′-isopropyl-1′,8′-dioxo-1′,2′,3′,8′-tetrahydrospiro[cyclobutane-1,4′-pyrido[1,2-a]pyrazine]-7′-carboxamide hydrochloride]",3.7 nM,–
"COCCO[C@H]1C[C@@]2(CN(C(C)C)C(=O)c3c(O)c(=O)c(C(=O)NCc4ccc(F)cc4F)cn32)C1 [Example S8, N-(2,4-difluorobenzyl)-9′-hydroxy-2′-isopropyl-trans-3-(2-methoxyethoxy)-1′,8′-dioxo-1′,2′-3′,8′-tetrahydrospiro[cyclobutane-1,4′-pyrido[1,2-a]pyrazine]-7′-carboxamide hydrochloride]",5.3 nM,–
"CN1C[C@]2(C[C@@H](OCc3ccccc3)C2)n2cc(C(=O)NCc3ccc(F)cc3F)c(=O)c(O)c2C1=O [Example S9, trans-3-(benzyloxy)-N-(2,4-difluorobenzyl)-9′-hydroxy-2′-methyl-1′,8′-dioxo-1′,2′,3′,8′-tetrahydrospiro[cyclobutane-1,4′-pyrido[1,2-a]pyrazine]-7′-carboxamide hydrochloride]",5.2 nM,–
"CN1C[C@]2(C[C@H](OCc3ccccc3)C2)n2cc(C(=O)NCc3ccc(F)cc3F)c(=O)c(O)c2C1=O [Example S10, cis-3-(benzyloxy)-N-(2,4-difluorobenzyl)-9′-hydroxy-2′-methyl-1′,8′-dioxo-1′,2′,3′,8′-tetrahydrospiro[cyclobutane-1,4′-pyrido[1,2-a]pyrazine]-7′-carboxamide hydrochloride]",6.1 nM,–
"CN1C[C@]2(C[C@@H](O)C2)n2cc(C(=O)NCc3ccc(F)cc3F)c(=O)c(O)c2C1=O [Example S11, N-(2,4-difluorobenzyl)- trans-3,9′-dihydroxy-2′-methyl-1′,8′-dioxo-1′,2′,3′,8′-tetrahydrospiro[cyclobutane-1,4′-pyrido[1,2-a]pyrazine]-7′-carboxamide hydrobromide]",25 nM,–
"CN1C[C@]2(C[C@H](O)C2)n2cc(C(=O)NCc3ccc(F)cc3F)c(=O)c(O)c2C1=O [Example S12, N-(2,4-difluorobenzyl)-cis-3,9′-dihydroxy-2′-methyl-1′,8′-dioxo-1′,2′,3′,8′-tetrahydrospiro[cyclobutane-1,4′-pyrido[1,2-a]pyrazine]-7′-carboxamide hydrobromide]",23 nM,–
"CO[C@H]1C[C@@]2(CN(C)C(=O)c3c(O)c(=O)c(C(=O)NCc4ccc(F)cc4F)cn32)C1 [Example S13, N-(2,4-difluorobenzyl)-9′-hydroxy-trans-3-methoxy-2′-methyl-1′,8′-dioxo-1′,2′,3′,8′-tetrahydrospiro[1,2-a]pyrazine]-1,4′-pyrido[1,2-a]pyrazine]-7′-carboxamide hydrochloride]",4.5 nM,–
"CO[C@H]1C[C@]2(CN(C)C(=O)c3c(O)c(=O)c(C(=O)NCc4ccc(F)cc4F)cn32)C1 [Example S14, N-(2,4-difluorobenzyl)-9′-hydroxy-cis-3-methoxy-2′-methyl-1′,8′-dioxo-1′,2′,3′,8′-tetrahydrospiro[cyclobutane-1,4′-pyrido[1,2-a]pyrazine]-7′-carboxamide hydrochloride]",3.9 nM,–
"CCN1C[C@]2(C[C@@H](OCc3ccccc3)C2)n2cc(C(=O)NCc3ccc(F)cc3F)c(=O)c(O)c2C1=O [Example S15, trans-3-(benzyloxy)-N-(2,4-difluorobenzyl)-2′-ethyl-9′-hydroxy-1′,8′-dioxo-1′,2′,3′,8′-tetrahydrospiro[cyclobutane-1,4′-pyrido[1,2-a]pyrazine]-7′-carboxamide hydrochloride]",6.9 nM,–
